Measurements published in US20140093884A1, “Process for Identifying Novel Anti-Inflammatory Molecules with Reduced Direct Transrepression of Genes Induced by Glucocorticoids” (UNIVERSITE DE STRASBOURG, priority 2011, published 2014).

Test system: TSLP
Assay: TSLP transcript levels in mouse ear epidermis after topical treatment (Q-RT-PCR)
Type: in vivo
Description: Mice. […] Real time PCR. Total RNA was reverse transcribed using hexamers, followed by Q-PCR, as reported (Li et al., 2005). The GC agonist fluocinolone acetonide (FA) was applied to ears of mice concomitantly treated with the “low-calcemic” Vitamin D3 (VitD3) analog MC903 (Calcipotriol; hereafter called MC) to trigger TSLP expression (Li et al., 2006). […] As expected, the expression of the GC-inducible GPX3 (glutathione peroxidase 3) gene which harbours a (+)GRE (Tuckermann et al., 1999) was enhanced by FA (FIG. 10) and inhibited by RU co-treatment, while FA or RU had no effect on MC-dependent expression of the CYP24A1 gene (a VitD3 target) (FIG. 10). […] Although the basal TSLP level was similar in vehicle-treated WT and GR^ep−/− mice, FA blocked MC-induced TSLP expression in WT, but not in GR^ep−/− mice (not shown).

## C=C1/C(=C\C=C2/CCC[C@]3(C)[C@@H]([C@H](C)/C=C/[C@@H](O)C4CC4)CC[C@@H]23)C[C@@H](O)C[C@@H]1O [MC903, Calcipotriol]
GRep-/- vs WT mice
  MC-induced TSLP expression in GRep-/- compared with WT mice: more efficient
WT mice, ears, topical MC903
  TSLP RNA level: increase
